The source of these data is patent publication US12486214B2, “Rosmarinic acid derivative, Rosmarinic acid-derived particles, composition containing same for treating inflammatory disease” (KOREA ADVANCED INSTITUTE OF SCIENCE AND TECHNOLOGY, priority 2020, dated 2025).

The subject of data set [1] is inflammatory bowel disease model mice. Kind of data set: Effect of oral HA-RANPs (and HA, RA, 5-ASA) on inflammatory bowel disease model mice (3% DSS). It is filed as in vivo. As to conditions: 5 times: HA-RANPs 100 mg/kg, HA 85 mg/kg, RA 15 mg/kg, 5-ASA 100 mg/kg. The procedure: To investigate the antiinflammatory therapeutic efficacy of HA-RANPs in inflammatory bowel disease model mice, the present inventors performed the following tests. By using the inflammatory bowel disease model in which 3% DSS and drinking water were administered to mice (C57BL/6, 6 weeks old, female, 7-day acclimatization) for 5 days, three dose concentrations (20, 50, and 100 mg/kg) of HA-RANPs were orally administered for 5 days (D+1 to D+5, one time/day) for a total of 5 times. The degree of disease progression and the antiinflammatory effect of HA-RANPs were examined through weight changes (measured daily) of all groups of mice and the extraction and tests of the large intestine on the last day.
In addition, the myeloperoxidase (MPO) activity and inflammatory cytokine expression were examined through ELISA assay. Specifically, the same portion of each mouse colon sample was cut, pre-treated, and minced, and then a predetermined amount thereof was centrifuged to obtain a supernatant, and thereafter, the supernatant was subjected to the following assay. The MPO activity is an index to evaluate the infiltration of neutrophils into the inflamed tissue. The measurement of MPO activity is disclosed in Grisham et al. (1990) or the like.
The change in extent of inflammation in the colon was investigated by histopathological examination, that is, examining the degrees of structural integrity loss, crypt destruction, and mucosal surface changes.
The present inventors evaluated the effect of the HA-RANPs of the present disclosure on inflammatory bowel disease model mice through the comparison with HA and RA. The inflammatory bowel disease model was induced by the same method as in the above-described experiment, wherein 100 mg/kg of HA-RANPs as a drug and the equal amounts of Free HA (85 mg/kg), RA (15 mg/kg), and 5-amino salicylic acid (5-ASA) (100 mg/kg) as positive drug controls were administered orally (a total of 5 times, one time/day, D+1 to D+5).

For data set [2] the following is noted: free RA, rats, intravenous 0.625 mg/kg; cited from earlier work.
For data set [3] the following is noted: in vivo; cited from earlier work.
The nature of data set [4]: Particle size, zeta potential and morphology (DLS/PCS, TEM). Format: physicochemical. The procedure: PEG-RA (20 mg) was dissolved in 4 mL of a 1:3 mixture (v/v) of chloroform:methanol and mixed for several minutes. The organic solvent was then removed by rotary vacuum evaporation and was further dried under a nitrogen flow for 30 minutes to yield a film layer. The film layer was suspended in 1 mL of PBS (137 mM NaCl, 2.7 mM KCl, 10 mM Na2HPO4, 2 mM KH2PO4, pH 7.4) and the resulting micelle suspension was sonicated in a bath sonicator (50 W, 40 kHz) for 10 minutes to yield uniform-sized RANPs. The micelle solution was maintained at 4° C., and directly used in the experiments below. The particle size of RANPs was analyzed by photon correlation spectroscopy (PCS) using a Nanosizer ZS90 (Malvern Instrument Ltd., Malvern, UK) equipped with 4.0 mW HeNe laser and an avalanche photodiode detector operating at 633 nm. Zeta potential was also measured at 25° C. in aqueous solutions (pH 7) by using the same equipment. The morphological characteristics of RANPs were examined using negative-staining transmission electron microscopy (TEM). Briefly, a drop of the diluted sample was placed on copper grids coated with a carbon film, stained with 0.5% w/v uranyl acetate solution, and dried at room temperature. The grids were imaged using a Tecnai F20 (FEI Co., Hillsboro, OR, USA) transmission electron microscope. […]
The hydrodynamic size and zeta potential of RANPs in phosphate buffer solution (pH 7.4), measured by dynamic light scattering (DLS), were 67.5±3.5 nm and −33.70 mV, respectively, indicating the exposure of the PEG layer on the surface of nanoparticles (FIG. 1C and Table 1).
The product was then analyzed through UV-Vis spectrometry using Beckman Coulter DU-800 UV-Vis spectrometer. The particle size of the HA-RA nanoparticles was obtained by measuring the hydrodynamic size of HA-RA nanoparticles in phosphate buffer solution (pH 7.4), measured by dynamic light scattering (DLS). […]
The LMWC-RA of the present disclosure was prepared into nanoparticles by the method shown in Example 8, and then the hydrodynamic size and zeta potential value thereof were measured.

Data set [5] in a line: Solubility in distilled water or DMSO. It is filed as physicochemical.

Each structure is given as a SMILES string. Read-outs that look alike come from different tables or passages of the source.

Consider `Nc1ccc(O)c(C(=O)O)c1` [5-ASA, 5-amino salicylic acid], for which, in data set [1], the “MPO activity and pro-inflammatory cytokine levels” value was “somewhat relieved”; the “body weight loss and colon length shortening on day 10” value is “significantly low”; the “colon histopathology (H&E stained biopsy)” value is given as “slightly relieved”; the “expression of tight junction-related genes ZO-1, claudin-1, and occludin in colon” value is on record as “improved”.
For `O=C(/C=C/c1ccc(O)c(O)c1)O[C@H](Cc1ccc(O)c(O)c1)C(=O)O` [Rosmarinic acid (RA), rosmarinic acid], in data set [2], the area under the curve (AUC) was 245 µg·min/mL, the “circulation (or elimination) half-life (t1/2)” value was 42.9 min and the “mean residence time (MRT)” value was 50.1 min. Besides, the “time within which RA is usually excreted from the body” value in data set [3] is not above 30 min. Moreover, in data set [1], the “MPO activity and pro-inflammatory cytokine levels” value is recorded as “somewhat relieved”; the “body weight loss and colon length shortening on day 10” value is on record as “slight efficacy”; the “colon histopathology (H&E stained biopsy)” value is on record as “slightly relieved”; the “expression of tight junction-related genes ZO-1, claudin-1, and occludin in colon” value was “improved”. In data set [4], this compound yielded a Conductivity of 24.10 mS/cm, a Mobility of −1.217 μm cm/Vs and a Zeta potential of −15.53 mV. Besides, in data set [5] (DMSO, organic solvent or mixture, read-out: solubility in DMSO), the solubility is not above 25 mg/mL. The “dissolution in distilled water” value in data set [5] (at 5 mg/ml) is given as “only partially dissolved”. In data set [5] (distilled water, water, read-out: solubility in distilled water), the solubility was not above 0.041 mg/mL.
